Measured values: a compilation of properties of binary mixtures (doi:10.1016/j.jct.2016.06.015)

Assay: xn = mol fraction of the nth substance listed
Settings: 100 kPa

CC[n+]1ccn(C)c1.F[B-](F)(F)F + C1COCCO1
viscosity [mPa·s]
Settings	293.15 K	298.15 K	303.15 K	313.15 K	323.15 K	333.15 K	343.15 K	353.15 K
x2 = 0	–	41.5	–	24.8	–	14.5	11.7	9.58
x2 = 0.1664	35.8	29.8	–	18.5	14.3	11.1	8.96	7.38
x2 = 0.2149	32.1	–	–	–	13	10.3	8.38	6.91
x2 = 0.3162	24.9	21	18.1	13.6	10.6	8.52	6.97	5.81
x2 = 0.3591	22.2	18.8	16.2	12.3	9.69	–	6.41	5.37
x2 = 0.5077	13.8	12	10.5	8.21	–	–	4.53	3.86
x2 = 0.5453	12.2	10.6	–	7.33	–	4.9	4.12	–
x2 = 0.6708	7.1	6.42	5.51	4.48	3.86	3.11	2.65	2.3

CC[n+]1ccn(C)c1.F[B-](F)(F)F + CC#N
viscosity [mPa·s]
Settings	x2 = 0	x2 = 0.0797	x2 = 0.1787	x2 = 0.2803	x2 = 0.3682	x2 = 0.4903	x2 = 0.5753	x2 = 0.7116	x2 = 0.8301
293.15 K	50.5	37.4	–	18.1	12.3	7.49	4.83	2.48	1.21
298.15 K	41.5	31.1	21.4	15.6	10.7	6.64	4.38	2.29	–
303.15 K	34.5	26.2	18.3	13.5	9.45	5.94	4	2.11	1.08
313.15 K	24.8	19.4	14	–	–	4.85	3.36	1.82	0.961
323.15 K	–	14.9	11	–	–	4.05	2.87	–	0.866
333.15 K	14.5	11.8	8.88	–	5.07	3.44	2.48	–	0.785
343.15 K	11.7	9.6	7.29	5.68	–	2.97	2.17	–	–

C1COCCO1 + CC[n+]1ccn(C)c1.F[B-](F)(F)F
x1 = 1
Settings	viscosity [mPa·s]
293.15 K	1.29
298.15 K	1.18
303.15 K	1.09
313.15 K	0.934
333.15 K	0.718
353.15 K	0.577

CC#N + CC[n+]1ccn(C)c1.F[B-](F)(F)F
x1 = 1
Settings	viscosity [mPa·s]
293.15 K	0.386
298.15 K	0.37
313.15 K	0.327
323.15 K	0.302
333.15 K	0.281
343.15 K	0.262

CS(C)=O + CC[n+]1ccn(C)c1.F[B-](F)(F)F
x1 = 1
Settings	viscosity [mPa·s]
293.15 K	2.21
298.15 K	2.01
303.15 K	1.84
313.15 K	1.56
323.15 K	1.34
333.15 K	1.17
343.15 K	1.03
353.15 K	0.917

OCCO + CC[n+]1ccn(C)c1.F[B-](F)(F)F
x1 = 1
Settings	viscosity [mPa·s]
303.15 K	14.3
313.15 K	10
333.15 K	5.33
353.15 K	3.24

CC[n+]1ccn(C)c1.F[B-](F)(F)F + CS(C)=O
viscosity [mPa·s]
Settings	x2 = 0	x2 = 0.0872	x2 = 0.2021	x2 = 0.2931	x2 = 0.4098	x2 = 0.4781	x2 = 0.5718	x2 = 0.6689	x2 = 0.7866	x2 = 0.8959
293.15 K	50.5	43.1	35.1	29.5	22.8	–	14.5	10.3	6.32	3.84
298.15 K	41.5	35.5	29.1	24.6	–	16.1	12.3	8.84	5.55	3.43
303.15 K	34.5	29.7	24.5	20.8	16.3	13.8	10.6	7.69	–	3.09
313.15 K	–	21.6	18	–	12.1	10.4	8.08	5.98	3.92	2.52
323.15 K	18.6	16.3	13.7	11.8	9.43	8.09	6.37	4.78	3.21	2.13
333.15 K	14.5	12.8	10.8	9.36	7.53	6.5	5.15	3.91	2.68	1.83
343.15 K	–	10.3	8.73	–	6.16	5.33	4.24	3.24	2.28	–
353.15 K	9.58	8.4	7.18	6.29	5.15	–	3.59	2.77	1.97	1.42

CC[n+]1ccn(C)c1.F[B-](F)(F)F + OCCO
viscosity [mPa·s]
Settings	x2 = 0	x2 = 0.099	x2 = 0.2174	x2 = 0.283	x2 = 0.4435	x2 = 0.5237	x2 = 0.5876	x2 = 0.6954	x2 = 0.7916	x2 = 0.8751
293.15 K	50.5	36.8	26.8	23.4	18	16.5	15.8	–	15	15.8
298.15 K	41.5	30.7	22.6	–	–	13.8	13.1	–	12.3	12.9
303.15 K	–	25.9	19.3	16.9	12.9	11.8	11.1	10.3	10.3	10.8
313.15 K	24.8	19.1	14.3	12.7	–	8.77	8.22	7.56	7.43	7.71
323.15 K	18.6	14.6	11.2	9.9	–	6.81	–	5.77	5.6	5.74
333.15 K	14.5	11.5	8.98	7.96	–	–	5.05	4.55	4.37	–
343.15 K	11.7	9.32	7.34	6.53	–	4.47	–	3.69	3.51	3.5
353.15 K	–	7.69	6.12	5.47	4.21	3.75	–	–	–	2.85
